# Calls of active or inactive are those of the source. No rule for the calls is given here.
# System: CCRIS mutagenicity, Ames/micronucleus/aberration tests
# Assay: CCRIS mutagenicity studies
# [1] = Test System: AMES SALMONELLA TYPHIMURIUM, Strain/Indicator: TA1535, Metabolic Activation: NONE, Method: STANDARD PLATE
# [2] = Test System: AMES SALMONELLA TYPHIMURIUM, Strain/Indicator: TA98, Metabolic Activation: NONE, Method: STANDARD PLATE
# [3] = Test System: AMES SALMONELLA TYPHIMURIUM, Strain/Indicator: TA1538, Metabolic Activation: NONE, Method: STANDARD PLATE
# [4] = Test System: AMES SALMONELLA TYPHIMURIUM, Strain/Indicator: TA97, Metabolic Activation: NONE, Method: STANDARD PLATE
# [5] = Test System: AMES SALMONELLA TYPHIMURIUM, Strain/Indicator: TA97, Metabolic Activation: RAT, LIVER, S-9, AROCLOR 1254, Method: STANDARD PLATE
# [6] = Test System: AMES SALMONELLA TYPHIMURIUM, Strain/Indicator: TA98, Metabolic Activation: RAT, LIVER, S-9, AROCLOR 1254, Method: STANDARD PLATE
# [7] = Test System: AMES SALMONELLA TYPHIMURIUM, Strain/Indicator: TA100, Metabolic Activation: NONE, Method: STANDARD PLATE
# [8] = Test System: AMES SALMONELLA TYPHIMURIUM, Strain/Indicator: TA100, Metabolic Activation: RAT, LIVER, S-9, AROCLOR 1254, Method: STANDARD PLATE
# [9] = Test System: AMES SALMONELLA TYPHIMURIUM, Strain/Indicator: TA1535, Metabolic Activation: RAT, LIVER, S-9, AROCLOR 1254, Method: STANDARD PLATE
# [10] = Test System: AMES SALMONELLA TYPHIMURIUM, Strain/Indicator: TA1538, Metabolic Activation: RAT, LIVER, S-9, AROCLOR 1254, Method: STANDARD PLATE
smiles,measurement,setting,value
CC(=O)NC[C@H](O)COc1cccc2ccccc12,mutagenic call,"Test System: AMES SALMONELLA TYPHIMURIUM, Strain/Indicator: TA98, Metabolic Activation: RAT, LIVER, S-9, AROCLOR 1254, Method: PREINCUBATION",inactive; negative
same,mutagenic call,"Test System: AMES SALMONELLA TYPHIMURIUM, Strain/Indicator: TA100, Metabolic Activation: RAT, LIVER, S-9, AROCLOR 1254, Method: PREINCUBATION",inactive; negative
same,mutagenic call,"Test System: AMES SALMONELLA TYPHIMURIUM, Strain/Indicator: TA104, Metabolic Activation: RAT, LIVER, S-9, AROCLOR 1254, Method: PREINCUBATION",active; positive
same,mutagenic call,"Test System: AMES SALMONELLA TYPHIMURIUM, Strain/Indicator: TA1535, Metabolic Activation: RAT, LIVER, S-9, AROCLOR 1254, Method: PREINCUBATION",inactive; negative
same,mutagenic call,"Test System: AMES SALMONELLA TYPHIMURIUM, Strain/Indicator: TA1538, Metabolic Activation: RAT, LIVER, S-9, AROCLOR 1254, Method: PREINCUBATION",inactive; negative
same,mutagenic call,"Test System: AMES SALMONELLA TYPHIMURIUM, Strain/Indicator: YG1021, Metabolic Activation: RAT, LIVER, S-9, AROCLOR 1254, Method: PREINCUBATION",inactive; negative
same,mutagenic call,"Test System: AMES SALMONELLA TYPHIMURIUM, Strain/Indicator: YG1024, Metabolic Activation: RAT, LIVER, S-9, AROCLOR 1254, Method: PREINCUBATION",inactive; negative
same,mutagenic call,"Test System: AMES SALMONELLA TYPHIMURIUM, Strain/Indicator: YG1026, Metabolic Activation: RAT, LIVER, S-9, AROCLOR 1254, Method: PREINCUBATION",inactive; negative
same,mutagenic call,"Test System: AMES SALMONELLA TYPHIMURIUM, Strain/Indicator: YG1029, Metabolic Activation: RAT, LIVER, S-9, AROCLOR 1254, Method: PREINCUBATION",active; positive
same,mutagenic call,"Test System: AMES SALMONELLA TYPHIMURIUM, Strain/Indicator: YG1041, Metabolic Activation: RAT, LIVER, S-9, AROCLOR 1254, Method: PREINCUBATION",inactive; negative
same,mutagenic call,"Test System: AMES SALMONELLA TYPHIMURIUM, Strain/Indicator: YG1042, Metabolic Activation: RAT, LIVER, S-9, AROCLOR 1254, Method: PREINCUBATION",inactive; negative
same,mutagenic call,"Test System: AMES SALMONELLA TYPHIMURIUM, Strain/Indicator: YG3003, Metabolic Activation: RAT, LIVER, S-9, AROCLOR 1254, Method: PREINCUBATION",active; positive
CC(=O)OCN(CCCCl)N=O,mutagenic call,"Test System: AMES SALMONELLA TYPHIMURIUM, Strain/Indicator: TA92, Metabolic Activation: NONE, Method: STANDARD PLATE",active; positive
same,mutagenic call,[1],active; positive
COc1ccc(N=Nc2ccc(N(C)C)cc2)cc1,mutagenic call,[2],active; positive
same,mutagenic call,"Test System: AMES SALMONELLA TYPHIMURIUM, Strain/Indicator: TA98, Metabolic Activation: RAT LIVER S-9, AROCLOR 1254, Method: STANDARD PLATE",active; positive
same,mutagenic call,[3],active; positive
same,mutagenic call,"Test System: AMES SALMONELLA TYPHIMURIUM, Strain/Indicator: TA1538, Metabolic Activation: RAT LIVER S-9, AROCLOR 1254, Method: STANDARD PLATE",active; positive
CC[C@@]1(O)C[C@H](O[C@H]2C[C@H](N(C)C)[C@H](O[C@H]3C[C@H](O)[C@H](O[C@H]4C[C@H](O)[C@H](O)[C@H](C)O4)[C@H](C)O3)[C@H](C)O2)c2c(cc3c(c2O)C(=O)c2c(O)ccc(O)c2C3=O)[C@H]1C(=O)OC,mutagenic call,[4],inactive; negative
same,mutagenic call,[2],inactive; negative
same,mutagenic call,"Test System: AMES SALMONELLA TYPHIMURIUM, Strain/Indicator: TA102, Metabolic Activation: NONE, Method: STANDARD PLATE",active; positive
same,mutagenic call,"Test System: AMES SALMONELLA TYPHIMURIUM, Strain/Indicator: TA104, Metabolic Activation: NONE, Method: STANDARD PLATE",active; positive
same,mutagenic call,"Test System: AMES SALMONELLA TYPHIMURIUM, Strain/Indicator: TA2637, Metabolic Activation: NONE, Method: STANDARD PLATE",inactive; negative
O=C(O)c1ccccc1O,mutagenic call,"Test System: AMES SALMONELLA TYPHIMURIUM, Strain/Indicator: TA98, Metabolic Activation: GUINEA PIG, LIVER, S-9, PCB, Method: PREINCUBATION",inactive; negative
same,mutagenic call,"Test System: AMES SALMONELLA TYPHIMURIUM, Strain/Indicator: TA98, Metabolic Activation: HAMSTER, LIVER, S-9, PCB, Method: PREINCUBATION",inactive; negative
same,mutagenic call,"Test System: AMES SALMONELLA TYPHIMURIUM, Strain/Indicator: TA98, Metabolic Activation: MOUSE, LIVER, S-9, PCB, Method: PREINCUBATION",inactive; negative
same,mutagenic call,"Test System: AMES SALMONELLA TYPHIMURIUM, Strain/Indicator: TA98, Metabolic Activation: NONE, Method: PREINCUBATION",inactive; negative
same,mutagenic call,"Test System: AMES SALMONELLA TYPHIMURIUM, Strain/Indicator: TA98, Metabolic Activation: RAT LIVER S-9, PHENOBARBITAL AND BETA-NAPHTHOFLAVONE, Method: PREINCUBATION",inactive; negative
same,mutagenic call,"Test System: AMES SALMONELLA TYPHIMURIUM, Strain/Indicator: TA98, Metabolic Activation: RAT, LIVER, S-9, PCB, Method: PREINCUBATION",inactive; negative
same,mutagenic call,"Test System: AMES SALMONELLA TYPHIMURIUM, Strain/Indicator: TA100, Metabolic Activation: GUINEA PIG, LIVER, S-9, PCB, Method: PREINCUBATION",inactive; negative
same,mutagenic call,"Test System: AMES SALMONELLA TYPHIMURIUM, Strain/Indicator: TA100, Metabolic Activation: HAMSTER, LIVER, S-9, PCB, Method: PREINCUBATION",inactive; negative
same,mutagenic call,"Test System: AMES SALMONELLA TYPHIMURIUM, Strain/Indicator: TA100, Metabolic Activation: MOUSE, LIVER, S-9, PCB, Method: PREINCUBATION",inactive; negative
same,mutagenic call,"Test System: AMES SALMONELLA TYPHIMURIUM, Strain/Indicator: TA100, Metabolic Activation: NONE, Method: PREINCUBATION",inactive; negative
same,mutagenic call,"Test System: AMES SALMONELLA TYPHIMURIUM, Strain/Indicator: TA100, Metabolic Activation: RAT LIVER S-9, PHENOBARBITAL AND BETA-NAPHTHOFLAVONE, Method: PREINCUBATION",inactive; negative
same,mutagenic call,"Test System: AMES SALMONELLA TYPHIMURIUM, Strain/Indicator: TA1535, Metabolic Activation: NONE, Method: PREINCUBATION",inactive; negative
same,mutagenic call,"Test System: AMES SALMONELLA TYPHIMURIUM, Strain/Indicator: TA1535, Metabolic Activation: RAT LIVER S-9, PHENOBARBITAL AND BETA-NAPHTHOFLAVONE, Method: PREINCUBATION",inactive; negative
same,mutagenic call,"Test System: AMES SALMONELLA TYPHIMURIUM, Strain/Indicator: TA1537, Metabolic Activation: NONE, Method: PREINCUBATION",inactive; negative
same,mutagenic call,"Test System: AMES SALMONELLA TYPHIMURIUM, Strain/Indicator: TA1537, Metabolic Activation: RAT LIVER S-9, PHENOBARBITAL AND BETA-NAPHTHOFLAVONE, Method: PREINCUBATION",inactive; negative
same,mutagenic call,"Test System: E.COLI, Strain/Indicator: WP2UVRA/PKM101, Metabolic Activation: NONE, Method: PREINCUBATION",inactive; negative
same,mutagenic call,"Test System: E.COLI, Strain/Indicator: WP2UVRA/PKM101, Metabolic Activation: RAT LIVER S-9, PHENOBARBITAL AND BETA-NAPHTHOFLAVONE, Method: PREINCUBATION",inactive; negative
O=C(COc1cc(Cl)c(Cl)cc1Cl)N[C@@H](Cc1c[nH]c2ccccc12)C(=O)O,mutagenic call,[4],inactive; negative
same,mutagenic call,[5],inactive; negative
same,mutagenic call,[2],inactive; negative
same,mutagenic call,[6],inactive; negative
same,mutagenic call,[7],inactive; negative
same,mutagenic call,[8],inactive; negative
same,mutagenic call,[1],inactive; negative
same,mutagenic call,[9],inactive; negative
same,mutagenic call,[3],inactive; negative
same,mutagenic call,[10],inactive; negative
C/C=C\c1ccc(OC)cc1OC,mutagenic call,[4],inactive; negative
same,mutagenic call,[5],inactive; negative
same,mutagenic call,[2],inactive; negative
same,mutagenic call,[6],inactive; negative
same,mutagenic call,[7],inactive; negative
same,mutagenic call,[8],inactive; negative
same,mutagenic call,[1],inactive; negative
same,mutagenic call,[9],inactive; negative
same,mutagenic call,"Test System: AMES SALMONELLA TYPHIMURIUM, Strain/Indicator: TA1537, Metabolic Activation: NONE, Method: STANDARD PLATE",inactive; negative
same,mutagenic call,"Test System: AMES SALMONELLA TYPHIMURIUM, Strain/Indicator: TA1537, Metabolic Activation: RAT, LIVER, S-9, AROCLOR 1254, Method: STANDARD PLATE",inactive; negative
same,mutagenic call,[3],inactive; negative
same,mutagenic call,[10],inactive; negative
